Results taken from US12031897B2, “Target-locking single-molecule nanoscopy” (Memorial Sloan Kettering Cancer Center, priority 2019, dated 2024).

Columns and labels:
[1] = system: CMV mini-gene transcription site (tdPCP-EGFP nascent RNA); assay: tdPCP-EGFP nascent transcription dynamics at the CMV mini-gene after inhibitor addition (wide-field live-cell imaging); format: cell-based, human; settings: U-2 OS cells, after adding 10 μM flavopiridol or 10 μM triptolide, individual transcription site traces, mean±S.D.
From the text: It can be observed that Pol II accumulates at sites of active nascent transcription. Example implementations may first image Pol II dynamics relative to transcription from a single promoter in a synthetic “mini-gene” system, stably integrated as single copies in U-2 OS cells (FIGS. 4A, 11A-11C). Example implementations may track nascent RNA production via phage PP7-derived stem-loops (24×PP7) and a tandem-dimer phage coat protein EGFP fusion (tdPCP-EGFP).
It can be observed in various embodiments that target-locking enables tracking Pol II dynamics during the transcription cycle. […]
Wide-Field Cell Imaging Experiments. […] The CCD data were analyzed using IDL 6.4 (ITTVIS). Maximum projection images were calculated for each stack, and the resulting 11 sec/frame movie was used to track the intensities of individual tdPCP-EGFP-tagged transcription sites. […] The auto-correlation function was calculated (for the tdPCP-EGFP fluctuation analysis), or the data were imported in Origin 8.5.0 (OriginLab) and the trace fitted to a single-exponential decay (for the transcription inhibition experiments).

[2] = molecular target: T1, Brd4 foci at the Pou5f1 locus (Mus musculus, UniProt Q9ESU6); assay: Brd4 cluster signal at Pou5f1 upon inhibition (live-cell confocal/STED scans); format: cell-based; settings: for Brd4 signal at Pou5f1 upon inhibition: 1 μM JQ1 (within 1 min) or 10 μM Flavopiridol
T1 construct: integrating a SNAP-tag at the N-terminus of the endogenous Brd4; endogenous in cells; host or cells: mouse ESCs OMG-1, homozygous SNAP-Brd4 knock-in clone 9 (printed as 'OMG SNAP-Cdk9 clone 9')
Method: For real-time confocal and STED imaging, example implementations may program the wave generator to scan 2 μm×2 μm or 1 μm×1 μm xy areas in 0.8 sec or 0.2 sec respectively. 3D scanning was performed (via, e.g., detection system 150) by acquiring 5 xy scans while moving the stage by 0.5 μm in z between scans. TTL pulses corresponding to single-photon events from the APDs, together with the trigger pulses from the wave generator were detected using a field-programmable gate array (FPGA) data acquisition system (National Instruments, PCIe-7852R).
Before imaging, cells were seeded onto 8-chamber coverglass (LabTek, 155411) coated with 5 μg/ml laminin (BioLamina LN511), in −2i media (OMG) or +2i media (NMG) and appropriate drugs. For SiR staining, cells were labeled with media containing 0.3 μM SiR-BG for 10 mins, at 37° C., followed by three washes with new media.
To generate OMG or NMG SNAP-Brd4 targeted cells, OMG-1 or NMG mESCs (1×106) were transfected with 10 μg SNAP-Brd4 donor vector and 0.6 μg espCas9-gRNA-Brd4 vector. 10 days after transfection, the cells were trypsinized, labeled with SiR-BG and subjected to FACS, generating a first-round SiR-positive pool. This pool was then expanded, stained with SiR-BG and subjected to second FACS round and individual clones were picked and expanded.

| SMILES | tdPCP-EGFP exponential decay time [1] [s] | Brd4 signal at Pou5f1 upon inhibition [2] | Hill equation n, relative Brd4 signal at Pou5f1 vs. [JQ1] ([2]; Pou5f1) |
| --- | --- | --- | --- |
| CC(C)[C@]12O[C@H]1[C@@H]1O[C@]13[C@]1(O[C@H]1C[C@H]1C4=C(CC[C@@]13C)C(=O)OC4)[C@@H]2O [triptolide] | 179 ± 57 | – | – |
| Cc1sc2c(c1C)C(c1ccc(Cl)cc1)=N[C@@H](CC(=O)OC(C)(C)C)c1nnc(C)n1-2 [JQ1] | – | drop sharply | 1.3±0.3 |
| CN1CC[C@H](c2c(O)cc(O)c3c(=O)cc(-c4ccccc4Cl)oc23)[C@H](O)C1 [flavopiridol] | 132 ± 38 | not lost | – |
